Test results taken from article PMC10226132, “First-in-Class Selective Inhibitors of the Lysine Acetyltransferase KAT8” (Journal of Medicinal Chemistry, 2023).

What was measured:
Assay type in all cases: biochemical
[1] = target: T1, KDAC8 (Homo sapiens, UniProt Q9BY41); experiment: KDAC inhibition assay, KDAC8; conditions: mean of three technical replicates
T1 sequence (Q9BY41 1-377): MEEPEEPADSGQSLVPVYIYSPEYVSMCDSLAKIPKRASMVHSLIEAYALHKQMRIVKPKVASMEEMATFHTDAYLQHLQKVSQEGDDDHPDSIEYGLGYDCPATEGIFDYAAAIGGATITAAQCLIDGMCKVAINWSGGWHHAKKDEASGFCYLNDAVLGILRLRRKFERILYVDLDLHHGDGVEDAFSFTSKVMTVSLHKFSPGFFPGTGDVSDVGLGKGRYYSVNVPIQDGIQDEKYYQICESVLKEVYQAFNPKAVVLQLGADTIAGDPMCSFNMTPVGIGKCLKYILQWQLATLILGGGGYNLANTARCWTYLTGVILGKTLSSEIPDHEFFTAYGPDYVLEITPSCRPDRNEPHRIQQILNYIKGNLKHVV
Experimental: (§1) KDAC1, 2, 3 6, and 8 inhibition assays were performed as described previously.[52] Briefly, the relevant human recombinant KDAC was diluted in an assay buffer with the following composition: 150 mM NaCl, 25 mM Tris–HCl (pH 8.0), 2.7 mM KCl, and 1 mM MgCl2; BSA (0.1 mg/mL) was also added in the case of KDAC1. Forty microliters of this solution were added to 10 μL of each inhibitor ([…]) and 50 μL of KDAC Assay substrate (Boc-Lys-(Ac)-AMC, 7–100 μM final concentration, depending on the KDAC isoform), and the resulting solution was mixed. […] After thorough mixing of the resulting solution, the plate was covered and incubated at 37 °C for 25 min and the fluorescence (λemission = 460 nm; λexcitation = 390 nm) was measured on a EnSight Multimode Plate Reader (Perkin Elmer). The shown values are average of three technical replicates ± SD.

[2] = target: T2, KAT6B (Homo sapiens, UniProt Q8WYB5); experiment: HotSpot KAT assay, KAT6B; conditions: for inhibition at 200 µM: read-out: % inhibition at 200 μM KAT6B (10 nM), NI = no inhibition
T2 construct: KAT6B (aa 657–1069, 10 nM); purchased Reaction Biology Corporation
T2 sequence (Q8WYB5 657-1069): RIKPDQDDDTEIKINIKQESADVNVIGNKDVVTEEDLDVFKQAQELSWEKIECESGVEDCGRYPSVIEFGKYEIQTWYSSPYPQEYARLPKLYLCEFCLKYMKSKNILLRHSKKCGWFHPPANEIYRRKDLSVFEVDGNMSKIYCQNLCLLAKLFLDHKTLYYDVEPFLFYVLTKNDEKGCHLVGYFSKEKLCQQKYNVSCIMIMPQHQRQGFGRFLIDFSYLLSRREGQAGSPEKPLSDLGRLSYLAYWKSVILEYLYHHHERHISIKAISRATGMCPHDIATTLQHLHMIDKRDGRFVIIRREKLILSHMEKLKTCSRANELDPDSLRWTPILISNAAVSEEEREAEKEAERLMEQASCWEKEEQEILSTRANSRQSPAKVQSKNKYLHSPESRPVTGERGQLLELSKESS
Experimental: (§2) The effects of the compounds on other KATs were determined using the HotSpot KAT assay (Reaction Biology Corporation, Malvern, PA, USA) according to the supplier’s procedure. The recombinant catalytic domains of human KAT2A (aa 323–837, 15 nM), KAT2B (aa 492–658, 25 nM), KAT3B (aa 1284–1672, 1 nM), KAT6A (aa 488–778, 10 nM), KAT6B (aa 657–1069, 10 nM), and full length human KAT5 (25 nM) and KAT7 (25 nM) were used. Each enzyme was incubated with the relevant histone peptide [H3 peptide for KAT2A, KAT2B, KAT3B, KAT6A, and KAT7 (2.5–5 μM, depending on the KAT isoform); H2A peptide for KAT5 (1.25 μM); H4 peptide for KAT6B (2.5 μM)] as a substrate and radio-isotope-labeled [^3H]Acetyl-CoA (0.2–1.5 μM, depending on the KAT isoform) as an acetyl donor in the assay buffer [50 mM Tris–HCl (pH 8.0), 50 mM NaCl, 0.1 mM EDTA, 1 mM DTT, 0.1 mM PMSF, 1% DMSO] for 1 h at 30 °C in the presence or absence of various compounds (1% DMSO final) titrated in a 2-fold serial dilution starting at 200 μM. Histone peptide acetylation was assessed by liquid scintillation counting using a Tri-Carb 2800TR Liquid Scintillation Analyzer (Perkin Elmer). Experiments were performed in biological triplicates. Signal reduction compared to control was plotted (as inhibition percentage) as a function of compound concentration. In cases in which an IC50 was calculated, the values were fitted by nonlinear regression (GraphPad Prism 8.0).

[3] = target: T3, KAT7 (Homo sapiens, UniProt O95251); experiment: HotSpot KAT assay, KAT7; conditions: for inhibition at 200 µM: read-out: % inhibition at 200 μM KAT7 (25 nM), NI = no inhibition
T3 construct: full length human KAT5 (25 nM) and KAT7 (25 nM) were used; purchased Reaction Biology Corporation
T3 sequence (O95251 whole entry): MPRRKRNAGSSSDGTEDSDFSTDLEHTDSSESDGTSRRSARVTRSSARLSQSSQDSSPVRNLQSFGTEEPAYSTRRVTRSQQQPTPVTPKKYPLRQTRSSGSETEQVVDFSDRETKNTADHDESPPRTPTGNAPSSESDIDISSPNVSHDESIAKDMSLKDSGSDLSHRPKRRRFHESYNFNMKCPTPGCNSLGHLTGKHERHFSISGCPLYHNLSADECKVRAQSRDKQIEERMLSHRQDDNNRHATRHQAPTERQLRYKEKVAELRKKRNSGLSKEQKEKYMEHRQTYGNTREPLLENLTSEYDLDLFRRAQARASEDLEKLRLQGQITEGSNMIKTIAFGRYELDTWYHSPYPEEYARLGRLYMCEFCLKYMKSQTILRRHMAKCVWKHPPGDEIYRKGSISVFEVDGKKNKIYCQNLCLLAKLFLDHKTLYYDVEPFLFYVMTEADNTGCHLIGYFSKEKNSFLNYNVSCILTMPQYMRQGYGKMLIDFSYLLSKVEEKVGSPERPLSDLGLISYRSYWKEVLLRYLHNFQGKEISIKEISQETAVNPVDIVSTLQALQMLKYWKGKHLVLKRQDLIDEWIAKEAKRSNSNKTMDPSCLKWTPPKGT
Experimental: as §2

[4] = target: T4, KDAC6 (Homo sapiens, UniProt Q9UBN7); experiment: KDAC inhibition assay, KDAC6; conditions: mean of three technical replicates
T4 sequence (Q9UBN7 1-1215): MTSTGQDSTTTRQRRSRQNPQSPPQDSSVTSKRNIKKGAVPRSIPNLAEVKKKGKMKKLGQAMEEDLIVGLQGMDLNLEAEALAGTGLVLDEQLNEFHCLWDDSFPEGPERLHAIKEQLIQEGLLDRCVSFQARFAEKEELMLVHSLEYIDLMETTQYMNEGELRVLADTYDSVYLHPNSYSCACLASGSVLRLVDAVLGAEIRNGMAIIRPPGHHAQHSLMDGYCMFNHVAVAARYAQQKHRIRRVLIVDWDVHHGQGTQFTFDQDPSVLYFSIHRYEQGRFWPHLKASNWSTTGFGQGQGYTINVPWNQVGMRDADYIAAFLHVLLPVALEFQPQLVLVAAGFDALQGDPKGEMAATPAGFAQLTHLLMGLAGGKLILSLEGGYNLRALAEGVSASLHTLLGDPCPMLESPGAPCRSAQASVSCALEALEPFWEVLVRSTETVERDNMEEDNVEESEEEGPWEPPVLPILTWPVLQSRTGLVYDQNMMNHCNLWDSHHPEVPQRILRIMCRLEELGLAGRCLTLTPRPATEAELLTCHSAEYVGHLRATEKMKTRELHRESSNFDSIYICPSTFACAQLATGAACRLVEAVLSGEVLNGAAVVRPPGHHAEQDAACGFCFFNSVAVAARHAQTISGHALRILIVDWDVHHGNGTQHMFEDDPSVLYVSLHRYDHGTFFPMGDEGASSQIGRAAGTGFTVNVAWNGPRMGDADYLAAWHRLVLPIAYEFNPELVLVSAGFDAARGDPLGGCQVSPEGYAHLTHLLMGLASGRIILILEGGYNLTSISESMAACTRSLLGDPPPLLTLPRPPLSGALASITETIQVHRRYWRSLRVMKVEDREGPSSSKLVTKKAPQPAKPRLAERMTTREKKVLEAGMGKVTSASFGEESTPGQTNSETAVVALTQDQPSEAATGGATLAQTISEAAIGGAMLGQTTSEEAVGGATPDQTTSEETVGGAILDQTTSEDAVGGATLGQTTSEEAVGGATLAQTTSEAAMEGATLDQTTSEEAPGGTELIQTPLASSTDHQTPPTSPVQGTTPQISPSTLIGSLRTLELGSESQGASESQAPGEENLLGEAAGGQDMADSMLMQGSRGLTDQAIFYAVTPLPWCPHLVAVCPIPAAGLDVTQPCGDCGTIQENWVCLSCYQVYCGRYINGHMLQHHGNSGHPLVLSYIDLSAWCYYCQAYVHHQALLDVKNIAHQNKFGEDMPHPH
Experimental: as §1

[5] = target: KDAC2 (Homo sapiens, UniProt Q92769); experiment: KDAC inhibition assay, KDAC2; conditions: mean of three technical replicates
Sequence of KDAC2 (Q92769 whole entry): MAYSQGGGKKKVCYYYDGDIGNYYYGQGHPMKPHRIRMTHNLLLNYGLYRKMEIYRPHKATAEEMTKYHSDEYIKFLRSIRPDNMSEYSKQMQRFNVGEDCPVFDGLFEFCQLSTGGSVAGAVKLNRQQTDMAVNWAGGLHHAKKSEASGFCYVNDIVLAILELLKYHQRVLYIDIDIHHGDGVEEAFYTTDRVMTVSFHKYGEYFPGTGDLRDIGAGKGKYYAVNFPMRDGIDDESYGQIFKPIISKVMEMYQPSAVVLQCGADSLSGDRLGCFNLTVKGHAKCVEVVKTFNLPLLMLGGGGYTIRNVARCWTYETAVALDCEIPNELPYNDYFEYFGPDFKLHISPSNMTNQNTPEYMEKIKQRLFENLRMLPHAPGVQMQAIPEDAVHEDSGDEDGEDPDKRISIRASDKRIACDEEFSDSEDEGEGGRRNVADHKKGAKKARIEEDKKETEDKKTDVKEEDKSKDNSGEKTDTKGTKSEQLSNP
Experimental: as §1

Row | inhibition at 50 µM [1] [%] | inhibition at 100 µM [1] [%] | IC50 ([2]; read-out: IC50 KAT6B (10 nM), control compound) [µM] | IC50 ([3]; control compound, read-out: IC50 KAT7 (25 nM)) [µM] | inhibition at 50 µM [4] [%] | inhibition at 100 µM [4] [%] | inhibition at 50 µM [5] [%] | inhibition at 100 µM [5] [%] | inhibition at 200 µM [2] [%] | inhibition at 200 µM [3] [%] | Structure (SMILES)
1 | 77.6 | 89.1 | 5.6 | 8 | 87.2 | 98.1 | 75.4 | 87.6 |  |  | CC1=NN(c2ccc(C(=O)O)cc2)C(=O)/C1=C\c1ccc(-c2cc(C)c(C)cc2[N+](=O)[O-])o1 [VII (C646), reference compound]
2 | 0.04 | 0.6 |  |  | 0.6 | 2.1 | 0.03 | 0.4 | 19.6 ± 1 | 16.9 ± 0.7 | O=C(O)c1ccc(N2N=C(c3ccccc3)/C(=C/c3ccc[nH]3)C2=O)cc1 [Compound 34, (Z)-4-(4-((1H-Pyrrol-2-yl)methylene)-5-oxo-3-phenyl-4,5-dihydro-1H-pyrazol-1-yl)benzoic Acid]
3 | 0.02 | 0.8 |  |  | 0.4 | 1.3 | 0.01 | 0.7 | 4.8 ± 1.6 | 0 | CC1=NN(c2ccc(C(=O)O)cc2)C(=O)/C1=C\c1ccc[nH]1 [Compound 19, (Z)-4-(4-((1H-Pyrrol-2-yl)methylene)-3-methyl-5-oxo-4,5-dihydro-1H-pyrazol-1-yl)benzoic Acid]
